{"source": "patent US20100290997A1", "about": "“Imaging Agents and Methods” (priority 2006, published 2010)", "key": {"[1]": {"experiment": "Determination of relaxivity (T1, T2) at 4.7 Tesla", "format": "physicochemical", "details": "4.7T MRI experimental scanner", "description": "(§1) Solutions of PG-Benz-DTPA-Gd-IR783 were prepared in water at gadolinium concentrations of 0.005, 0.01, 0.02, 0.04, 0.08, and 0.16 mM. Spin lattice (T1) and spin-spin (T2) relaxivities were measured at 4.7 Tesla on 4.7T Bruker Biospec 47/40USR (City, State) using inversion recovery and mutiecho T2-weight pulse sequences. Relaxivities (R1 or R2 in mM^−1s^−1) were obtained from linear least square determination of the slopes of 1/T1 vs [Gd] or 1/T2 vs [Gd] plots.\nas §1, with “PG-DTPA-Gd-NIR813” for “PG-Benz-DTPA-Gd-IR783”, “(Bruker Biospin Corp., Billerica, Mass.)” for “47/40USR (City, State)”"}, "[2]": {"experiment": "Fluorescence emission spectra", "format": "physicochemical", "details": "methanol solution; for emission wavelength (maximum): excited at 766 nm", "description": "Analytical high-performance liquid chromatography (HPLC) was carried out on an Agilent 1100 system (Wilmington, Del.) equipped with a Vydac peptide and protein analytic C-18 column (Anaheim, Calif.). Sample was eluted with water and acetonitrile containing 0.1% TFA varying from 10% to 80% over 30 min. Fluorescence intensity was measured by Spex Fluorolog spectrofluorimeter (Jobin Yvon Inc, Edison, N.J.).\nThe fluorescence emission spectra of the synthesized contrast agent was obtained using a Spex Fluorolog spectrofluorimeter (Horiba Yvon Jobin, N.J.)."}, "[3]": {"target": "T1, cathepsin B (Homo sapiens, UniProt P07858)", "T1 construct": "purchased Sigma-Aldrich (St. Louis, Mo.)", "experiment": "Inhibition of biodegradation of L-PG-NIR813 in presence of CB inhibitor II", "format": "biochemical", "details": "0.2 unit/mL cathepsin B, 10 μM eq. NIR813", "description": "L-PG-NIR813 with different loading 8.3% and 10%, CB and CB inhibitor II were dissolved in assay buffer respectively. The reaction mixture (100 μL) in each well was composed of 10 μM L-PG-NIR813 probe and 0.2 units/mL CB. The CB inhibitor II was serially diluted in the assay buffer to obtain concentrations ranging from 240 μM to 77 nM. The microwell assay plate was incubated at 37° C. for 24 hr. At predetermined time intervals, the inhibition of biodegradation was examined using Li-Cor Odyssey imager."}}, "note": "Where a SMILES comes first, the peptide text is derived from it."}
{"compound": "O=C([O-])CN(CCN(CC(=O)[O-])CC(=O)O)CCN(CC(=O)[O-])CC(=O)O.[Gd+3]", "note": "[DTPA-Gd]", "values": [{"measurement": "T1 relaxivity (r1)", "setting": "[1]", "result": 4.8, "unit": "mmol⁻¹ s⁻¹"}]}
{"compound": "CC1(C)C(=CC=C2CCCC(C=CC3=[N+](CCCCS(=O)(=O)[O-])c4ccccc4C3(C)C)=C2Cl)N(CCCCS(=O)(=O)[O-])c2ccccc21.[Na+]", "note": "[IR783]", "values": [{"measurement": "Stokes shift", "setting": "[2]", "result": 32, "unit": "nm"}, {"measurement": "excitation wavelength", "setting": "[2]", "result": 766, "unit": "nm"}, {"measurement": "emission wavelength (maximum)", "setting": "[2]", "result": 798, "unit": "nm"}]}
{"compound": "CC1(C)C(/C=C/C2=C(Sc3ccc(C(=O)NCCCCCN)cc3)C(=C/C=C3/N(CCCCS(=O)(=O)O)c4ccccc4C3(C)C)/CCC2)=[N+](CCCCS(=O)(=O)O)c2ccccc21", "note": "[NIR813, IR-783-S-Ph-CONH(CH2)5NH2]", "values": [{"measurement": "Stokes shift", "setting": "[2]", "result": 47, "unit": "nm"}, {"measurement": "excitation wavelength", "setting": "[2]", "result": 766, "unit": "nm"}, {"measurement": "emission wavelength (maximum)", "setting": "[2]", "result": 813, "unit": "nm"}]}
{"compound": "CC(=O)N[C@@H](CC(C)C)C(=O)N[C@H](C(=O)N[C@H](C=O)CCCCN)C(C)C", "note": "[CB inhibitor, Ac-LVK-CHO] (Ac-Leu-Val-Lys-aldehyde)", "values": [{"measurement": "inhibition of PG-NIR813 degradation by CB", "setting": "[3]", "result": "inhibited by CB inhibitor in a dose-dependent manner"}]}
